# Source: patent publication US7803563B2, “Method for screening the receptor-ligand binding in live cell” (Shanghai Institutes for Biological Sciences, CAS, priority 2006, dated 2010)
# “Also recorded” adds a separate entry of the source.
# How the values were obtained:
# Assay type in all cases: cell-based, Wistar rats
# 5HT-R = assay: FM endocytosis imaging (FEI) of 5-HT-induced endocytosis in DRG neuron
# Description: (§1) Methods of the invention are based on FM endocytosis imaging (FEI). Confocal imaging can be used to measure the endocytosis induced by ligand-receptor binding (LRB). The principles of FM endocytosis imaging (FEI) method are: (i) an extracellular styryl FM dye (e.g., FM2-10) is taken up by the endocytic vesicles; and (ii) the FM molecule becomes 100 times brighter after uptake into vesicles. Thus, after proper stimulation, individual FM-loaded vesicles become visible images by standard confocal microscopy.
# (§2) FIG. 2A illustrate a method of the invention. […] The ligand binds to the receptor and triggers receptor internalization (endocytosis). In the endocytosis process, the FM dye is internalized in endocytic vesicles. […]
# (§3) The dye-containing vesicles in the cell may be imaged with a confocal fluorescence microscope, such as Zeiss LSM 510 (Germany). […]
# (§4) The FM spots in each OS can be counted manually or automatically, e.g., with the aid of a software. […] Thus, the pixel sizes of the images may be properly adjusted so that FM spots corresponding to the vesicles are counted. One of ordinary skill in the art would appreciate that the images may be manipulated with techniques known in the art, e.g., smoothing, and the dynamic range (intensity range) may be adjusted so that majority (e.g., >90%) of the fluorescent spots are counted, with minimum interference from background noises. […]
# DRG = assay: Differential FEI labeling with FM2-10 and FM4-64 and KCl discharge; conditions: for numbers of endocytic vesicles induced by the two ligands: sequential ADP and 5-HT incubation with two FM dyes in the same cell, FIG. 8D
# Experimental: This capability, for example, may be used to probe the vesicle sorting or trafficking inside the cells. It is known that GPCRs are active cargos for the internalized vesicles, and each different type of GPCR vesicles may have its own sorting pathway. To investigate different sorting paths of vesicles internalized under different conditions (time, ligand, etc.), vesicles can be labeled with FM dyes of different colors in the same cell.
# As shown in the left panel, the cells in a dish is incubated with ADP and FM2-10 (green fluorophore). Then, the dye and ADP are washed away and a second incubation is performed with 5-HT and FM4-64 (red fluorophone). The cells are again washed and monitored with a confocal microscope, as illustrated in the right panel. Both FM2-10 and FM4-64 can be excited with a light at 488 nm. The emission of FM2-10 can be monitored at 530-600 nm, while the emission of FM4-64 can be monitored at >635 nm.
# To test whether there is a common sorting pathways for the ADP-induced and 5-HT-induced endocytic vesicles, the cell was treated with 80 mM KCL for three minutes.
# DRG neuron = assay: Time-resolved FEI recording (FIF recording)
# Description: Methods of the invention, as noted above, can provide images of endocytic vesicles with relative ease. Thus, these methods for detecting LRB-induced endocytosis can be used in real time to monitor the endocytosis processes. […] In real-time applications, the FEI methods described above may be modified as follows to provide better FIF results: (i) the spatial resolution can be reduced, i.e., OS thickness increased, to increase detection sensitivity; (ii) the confocal scan can be made at a fixed z-position (normally near the middle of the cell); and (iii) cell images can be obtained in the presence of extracellular FM dye (i.e., no need to wash away the dye outside the cells). Under these conditions, FIF recording can rapidly acquire many x-y images of the cell after ligand binding in order to monitor the LRB induced events in real time.
# FIG. 7A illustrates a setup for performing a real-time recording of LRB-induced events. As illustrated, the cell is bathed in an ES solution containing a fluorescent dye (e.g., FM2-10), and the OS is selected to a thickness of about […] to have a better sensitivity. […] This is to provide background readings before the ligand is added. From image frame K+1 to image frame m (i.e., from tk+1 to tm), the cell is incubated with the ligand (ADP) in the ES solution. […]
# The fluorescence intensity is proportional to the total number of endocytic vesicles. […]
# DRG cells = assay: Multi-well (2×2) FEI protocol; conditions: 3 minutes, FIG. 9C
# Experimental: FIGS. 9A-9B illustrate a method of the invention that could be used for high throughput evaluation of LRB-induced endocytosis in a multi-well (here 2×2) format. The multi-well plate is the same as a standard cell culture plate, except that a 0.17 mm-thick glass cover-slip constitutes part of the bottom in each well. In this example, single DRG cells were plated on the cover-slips in the wells.
# Well (1,1) is incubated with ES and FM, without any ligand. Well (1,2) is incubated with 80 mM KCl and FM. Well (2,1) is incubated with 0.1 mM ADP and FM. Well (2,2) is incubated with ADP, Suramin, and FM. The incubations are all performed for 3 minutes.
# Each well was scanned in sequence to obtain the images shown in FIG. 9B, and the endocytic signal (FM spots/cell) were analyzed and presented in histograms (FIG. 9C). […] Within each column, the top image is a transmission microscopy image, showing the cells in the well. The cell bracketed by the square in each well is chosen for image analysis.
# The selected cells are scanned for FM images of single OSs (middle image) as well as the global image (bottom image) in each cell (FIG. 9B).
# P2Y = assay: FM endocytosis imaging (FEI) of ADP-induced endocytosis in single DRG neuron
# Description: as §1
# FIG. 2A illustrate a method of the invention. […] The ligand binds to the receptor and triggers receptor internalization (endocytosis). In the endocytosis process, the FM dye is internalized in endocytic vesicles. Subsequently, the excess FM-dye may be washed away, leaving behind cells loaded with dye filled vesicles that are observable due to the fluorescent dye. Using this procedure, single vesicles in a single cell can be visualized by FM imaging. Note that while this example uses an FM dye, other suitable dyes may also be used without departing from the scope of the invention. […] Therefore, some methods of the invention may not include the washing step.
# When a confocal microscope is used, the images may be takes in different optical slices (OSs) based on different focal depth. […] The data can be observed as the distribution of FM spots (individual vesicles) in each OS or as a global view, which is a projection overlaying the FM images from different OSs. An advantage of viewing the individual OS is the ability to track the location of the endocytic vesicles within the cell. This would permit studies of vesicle trafficking inside the cells. The advantage of the global view is the total number of vesicles are observed and, therefore, it provides a maximum sensitivity for assay use. For example, the global view may be used to monitor LRB events as a function of time—e.g., in real-time monitoring. […]
# as §3
# δ-opioid-DOR = molecular target: T1, δ-opioid-DOR (Rattus norvegicus, UniProt P33533)
# T1 construct: endogenous in cells; host or cells: freshly dissociated small DRG neurons of Wistar rats
# [1] = molecular target: T2, receptor of the tyrosine kinase (RTK) family (Rattus norvegicus, UniProt P35739); assay: FM endocytosis imaging (FEI) of NGF-induced endocytosis in DRG neuron; conditions: NGF 50 ng/ml
# T2 construct: endogenous in cells; host or cells: freshly dissociated small DRG neurons of Wistar rats
# Description: as §1, §2, §3, §4
# T2 sequence (P35739 33-799): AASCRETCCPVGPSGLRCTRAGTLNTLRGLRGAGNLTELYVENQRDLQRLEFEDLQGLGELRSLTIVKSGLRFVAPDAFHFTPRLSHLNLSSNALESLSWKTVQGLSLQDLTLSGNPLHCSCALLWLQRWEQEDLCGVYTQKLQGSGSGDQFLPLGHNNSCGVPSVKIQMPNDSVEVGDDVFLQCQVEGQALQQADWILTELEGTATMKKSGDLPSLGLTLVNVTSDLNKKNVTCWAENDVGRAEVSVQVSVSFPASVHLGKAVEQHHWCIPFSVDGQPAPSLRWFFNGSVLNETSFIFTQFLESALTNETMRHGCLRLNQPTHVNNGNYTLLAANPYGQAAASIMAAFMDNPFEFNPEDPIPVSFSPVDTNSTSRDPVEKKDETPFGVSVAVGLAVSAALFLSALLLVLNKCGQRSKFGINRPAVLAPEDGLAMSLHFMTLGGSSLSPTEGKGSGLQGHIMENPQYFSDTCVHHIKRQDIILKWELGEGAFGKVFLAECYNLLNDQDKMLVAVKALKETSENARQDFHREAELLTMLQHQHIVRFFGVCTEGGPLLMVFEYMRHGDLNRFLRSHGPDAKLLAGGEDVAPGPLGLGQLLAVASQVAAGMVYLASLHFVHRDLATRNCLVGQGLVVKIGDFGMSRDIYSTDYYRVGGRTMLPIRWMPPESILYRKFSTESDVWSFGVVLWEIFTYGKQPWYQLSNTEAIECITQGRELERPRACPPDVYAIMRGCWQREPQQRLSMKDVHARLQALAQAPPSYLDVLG
# T1 sequence (P33533 whole entry): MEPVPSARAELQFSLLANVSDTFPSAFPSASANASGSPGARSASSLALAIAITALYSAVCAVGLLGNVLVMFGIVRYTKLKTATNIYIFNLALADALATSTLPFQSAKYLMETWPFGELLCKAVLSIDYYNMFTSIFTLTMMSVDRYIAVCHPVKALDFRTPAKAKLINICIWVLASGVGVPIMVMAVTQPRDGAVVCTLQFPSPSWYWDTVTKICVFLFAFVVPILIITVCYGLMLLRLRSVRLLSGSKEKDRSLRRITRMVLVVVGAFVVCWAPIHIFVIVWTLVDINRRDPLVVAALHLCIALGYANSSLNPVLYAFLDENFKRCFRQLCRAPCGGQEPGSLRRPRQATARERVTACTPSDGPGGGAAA
molecule,measurement,setting,value
"NCCc1c[nH]c2ccc(O)cc12 [5-HT, 5-hydroxytryptamine]",endocytic vesicles (FM spots),5HT-R; 5-HT 0.1 mM vs control incubated with ES 3 minutes,substantial increases
same,"number of FM spots relative to those induced by AR, GABAB, and mAChR","5HT-R; ligands separately introduced, FIG. 6B",2-3 times
same,numbers of endocytic vesicles induced by the two ligands,DRG,similar
Nc1ncnc2c1ncn2[C@@H]1O[C@H](COP(=O)(O)OP(=O)(O)O)[C@@H](O)[C@H]1O [ADP],number of fluorescent spots (endocytic vesicles) in the cell,"DRG neuron; image at t=tm (ADP) vs t=tk (control), DRG neuron",substantial increase
same,fluorescence intensity (number of endocytic vesicles) inside the cell,"DRG neuron; time course, average of 21 experiments, extracellular FM dye present",significantly increases
same,numbers of endocytic vesicles induced by the two ligands,DRG,similar
same,endocytosis (FM spots/cell),DRG cells; 0.1 mM ADP and FM,induced significant endocytosis
same,"distribution of endocytic vesicles, medulla compared with periphery","P2Y; ADP-induced vesicles in DRG neuron, histogram FIG. 3C",Almost twice as many
same,"number of FM spots relative to those induced by AR, GABAB, and mAChR","P2Y; DRG neuron, ligands separately introduced, FIG. 6B",2-3 times
same,number of FM spots (endocytic vesicles),"P2Y; FM+ADP 3 min vs FM+ES control 3 min, single DRG neuron, FIG. 3A/3B",increased dramatically; also recorded: dramatic increase
[Cl-].[K+] [KCl],green/5HT-R vesicles discharged,"DRG; 80 mM KCL for three minutes, 5-HT-induced vesicles, FIG. 8E",about 37%
same,red/P2Y vesicles discharged,"DRG; 80 mM KCL for three minutes, ADP-induced vesicles, FIG. 8E",about 43%
same,vesicles lost after the KCl treatment,"DRG; 80 mM KCL for three minutes, FIG. 8C",significant amount of vesicles were lost
CC(C)[C@H](NC(=O)[C@H](CCC(=O)O)NC(=O)[C@H](Cc1ccccc1)NC(=O)[C@@H](C)NC(=O)[C@@H](N)Cc1ccc(O)cc1)C(=O)N[C@H](C(=O)NCC(=O)O)C(C)C [deltorphin],"number of FM spots relative to those induced by AR, GABAB, and mAChR",δ-opioid-DOR,2-3 times
Cc1ccc(C(=O)Nc2ccc(S(=O)(=O)O)c3cc(S(=O)(=O)O)cc(S(=O)(=O)O)c23)cc1NC(=O)c1cccc(NC(=O)Nc2cccc(C(=O)Nc3cc(C(=O)Nc4ccc(S(=O)(=O)O)c5cc(S(=O)(=O)O)cc(S(=O)(=O)O)c45)ccc3C)c2)c1 [suramin],inhibition of ADP-induced endocytosis (FM spots/cell),"DRG cells; ADP, Suramin, and FM",inhibited
nerve growth factor [NGF],endocytic vesicles (FM spots),[1],substantial increase
